The values below come from article PMC12418703, “Avenanthramides and avenacosides as biomarkers of oat intake: a pharmacokinetic study of solid and liquid oat consumption under single and repeated dose conditions” (Nutrition Journal, 2025).

Structures are written as SMILES. Where two headings read alike, the source gives them in different places.

On the set-up of series [1]: method as in PMID 39491249. The settings on record: in the presence of starch; cited from earlier work.
Series [2] in a line: Plasma pharmacokinetics after a single dose of liquid or solid oat product (compartmental PK model). Type of series: in vivo, humans. The arrangement: V/F: unit not given here. The settings on record: for Cmax / half-life / k el / Tmax: both sexes, oral; for Cmax / half-life / k el: human, plasma; for Cmax / half-life / k el / Tmax / ka / V/F / T1/2: single dose; for k el: elimination rate (Table 2), read-out: ke (converted); for Tmax: human plasma, derived from PK model; for V, population estimate (RSE%) / ka, population estimate (RSE%) / ke, population estimate (RSE%): Table S1 compartmental model; for ka: absorption rate (Table 2); for V/F: distribution volume over bioavailability. From the text: A non-blinded, randomized two-way crossover study with two different oat products (solid or liquid) was designed to investigate the AVA and AVE PK after a single dose and after repeated dosing at three different doses, for respective food (Fig. 2). Since this is the first study of its kind, it is impossible to make any formal calculation of the number of subjects needed to show meaningful differences in plasma biomarker concentrations, since the variation is unknown. However, similar studies aimed for BFI discovery and validation of dose-response have typically used 5–30 subjects. We therefore considered 23 individuals as a good compromise between feasibility and possibilities to assess variation in biomarker concentrations, estimate pharmacokinetic parameters, dose response and performing modelling with good precision. A scientist not involved in the study, conducted the randomization using the RAR method (RandomizeR package) in R software environment and provided lists with allocated treatment sequences. The study was conducted in two phases. In the first phase, blood samples were drawn from 11 men and 12 women for 24 h after consumption of a single dose of either a solid or a liquid oat product on-site. Breakfast and lunch were also provided on-site. A single dose of solid (62 g of oat flakes) or liquid (196 mL of oat drink) containing individual AVAs and AVEs shown in Table 1 were consumed, respectively. Blood plasma samples were drawn for 24 h (0 h, 0.25 h, 0.5 h, 0.75 h, 1 h, 1.5 h, 2 h, 3 h, 4 h, 5 h, 6 h, 7 h, 8 h, 24 h). After the 24 h, at the second phase of the study, the corresponding product was further consumed three times per day for four days at either a low, medium, or high intake dose (98, 196 and 392 mL for liquid oats and 31, 62 and 123 g for oat flakes with corresponding contents of AVAs and AVEs (Table 1) in a Latin square design. Therefore, a total number of 8 participants (2 males and 6 females) were randomized to the low dose, 9 participants (3 males and 6 females) for medium dose and 6 participants (3males and 3 females) for the high dose. Participants consumed the provided products at home and were instructed to follow their habitual diets with restriction on the consumption of oat products. A list of relevant foods was provided as a guide. The oat flakes were pre-portioned into individual bags and could be consumed without heating, mixed with yoghurt, cottage cheese, sour milk or any liquid. Participants were instructed to consume the full amount, including the liquid or food the oats were mixed with. Liquid oat products were weighed prior consumption, and they were to be consumed without any additional food. In all cases the time of oat intake was recorded in a food journal. On the fifth day of phase II, a fasting sample was drawn. Fecal samples were collected at baseline and at the end of phase II of the intervention. Between each study period, there was a wash-out period of eight days where participants consumed their habitual diet. After the washout, participants started with a single dose and repeated dosing for the other product in the same way as for the first. The participants were instructed to avoid foods containing oats during the last three days prior to the start of the study and during the last three days of the wash-out period. Compliance was assessed based on information provided in a compliance journal during the study weeks as well as through 2-day food records. The oat products used in the study were provided to the participants. The flakes for the single dose were consumed with water ad lib and for the repeated dose they could be mixed with water, yoghurt, milk, sour milk or cottage cheese with the condition that all the amount of the oat product is consumed. The oat drink was consumed without any other product.
All blood samples were collected into EDTA-coated tubes by a trained nurse. […]

Series [3] concerns Feacalibacterium prausnitzii. Briefly: Association of F. prausnitzii relative abundance at baseline with Cmax and AUC strata (logistic regression). On the set-up: species or system humans. Particulars: liquid, solid, or combined; single dose phase I. On the procedure: DNA was extracted from approximately 35 mg of each of the 451 fecal samples using the NucleoSpin Soil kit (Macherey-Nagel, 740780.250 M), following the manufacturer’s instructions. DNA yield was quantified using the Qubit 1X dsDNA Broad Range assay kit (Thermo Fisher Scientific, Q33266). For metagenomic shotgun sequencing, libraries were prepared with the MGIEasy Fast FS DNA Library Prep Set (MGI Tech Co., Ltd., 940-000030-00, Werheim, Germany), using 400 ng of DNA per sample. The library preparation process included DNA shearing for 12.5 min, followed by end repair, A-tailing, and magnetic bead-based cleanup. Adapter ligation and cleanup were then performed, followed by PCR amplification and magnetic bead-based size selection of the final library product. Library quality was assessed using the Qubit 1X dsDNA HS Assay Kit (Thermo Fisher Scientific, Q33231) and the Agilent High Sensitivity D1000 Assay Kit (Agilent Technologies, 5067–5584 and 5067–5585, Santa Clara, CA, USA). Pooled libraries were circularized, barcoded, and used as templates for DNA nanoball preparation. The nanoballs were then analyzed on the DNBSEQ-T7 platform (MGI Tech Co., Ltd.) using the DNBSEQ-T7RS High-throughput Sequencing Set (FCL PE150), according to the manufacturer’s guidelines.
Raw metagenomic reads underwent quality control to remove low-quality sequences, adapters, and contaminants using Fastp (version 0.23.2, default parameters). High-quality reads were filtered to exclude human reads (GRCh38_noalt_as) using Bowtie2 [38] (version 2.5.3). The quality-filtered reads were then aligned to the taxonomy database using MetaPhlAn (version 4.0.6, default parameters) to generate relative abundance profiles. For inclusion in the analysis, a species was required to be present in at least three samples.
For the seven metabolites AVE A, AVE B, AVA 2c, AVA 2f, AVA 2fd, AVA 2p, AVA 2pd analysed at phase I after the single dose of oat products, Cmax and area under the curve (AUC) were stratified based on less than the median or more or equal to the […]. Thereafter, for each metabolite, it was investigated whether the relative abundance of F. prausnitzii at baseline could predict the strata since this bacterium has previously been reported to be responsible for production of their dihydro-metabolites. Logistic regression with a binomial distribution and a logistic link function was used to separately analyze the liquid and solid products. When analyzing liquid and solid products together, a generalized linear mixed model with a binomial distribution and a logistic link function was used, with identity included as a random factor.

On the set-up of series [4]: method as in PMID 30977921. Particulars: cited from earlier work.
Setting [5] is: 62 g of oat flakes, solid oat product (62 g oat flakes).
The mark [6] stands for this setting: 196 mL of oat drink, liquid oat product (196 mL oat drink).
The mark [7] stands for this setting: control samples (digestion without proteins).
[8] abbreviates: in the presence of whey protein.

The term Cmax denotes the peak of the concentration-time curve. Broadly, the half-life is the time needed for the level to fall by half in the phase considered. What is called Tmax is the time at which the peak concentration occurs. `O=C(/C=C/c1ccc(O)c(O)c1)Nc1ccc(O)cc1C(=O)O` [AVA 2c]: in series [1], the change of bioaccessibility entry is listed as “increased”. For the same compound, in series [2] (62 g of oat flakes, solid), the Cmax came out at 4.91 ± 0.52 nM, the half-life was 2.13 ± 0.16 h and the k el was 9.17e-05 s⁻¹. In series [2] (196 mL of oat drink, liquid), the peak level (Cmax) was 1.16 ± 0.12 nM, the half-life was 1.58 ± 0.12 h and the k el was 0.000122 s⁻¹. Further, in series [2] (setting [5]), the Tmax is 1.37 ± 0.06 h. For the same compound, the Tmax in series [2] (setting [6]) came to 0.73 ± 0.03 h. Besides, in series [2] (liquid), the “V, population estimate (RSE%)” value was 500 (19) L; the “ka, population estimate (RSE%)” value was 5.9 (18) 1/h; the “ke, population estimate (RSE%)” value is 0.43 (17) 1/h; the ka is on record as 6.0 ± 0.3^1 1/h. The V/F in series [2] (liquid) is 430 ± 42^2. Also, in series [2] (solid), the “V, population estimate (RSE%)” value is 720 (22) L; the “ka, population estimate (RSE%)” value is listed as 2.8 (10) 1/h; the “ke, population estimate (RSE%)” value was 0.31 (17) 1/h; the ka amounted to 2.8 ± 0.16 h⁻¹. In series [2] (solid), the V/F was found to be 698 ± 71. Also, in series [3], the “association between F. prausnitzii abundance at baseline and Cmax and AUC” value is “no significant associations”. In series [4] (setting [7]), the “bioaccessibility, times lower compared to AVA 2f” value is given as 3.9 times and the “bioaccessibility, times lower compared to AVA 2p” value is recorded as 4.6 times. Moreover, in series [4] (setting [8]), the “bioaccessibility, times increase” value was 3.6 times.

In the case of `COc1cc(/C=C/C(=O)Nc2ccc(O)cc2C(=O)O)ccc1O` [AVA 2f], the change of bioaccessibility result in series [1] is “decreased”. Also, in series [2] (62 g of oat flakes, solid), the Cmax came out at 2.1 ± 0.22 nM, the half-life is 2.28 ± 0.18 h and the k el was 8.33e-05 s⁻¹. For the same compound, in series [2] (196 mL of oat drink, liquid), the highest level (Cmax) was 0.69 ± 0.07 nM, the half-life is 3.2 h and the k el is 6.11e-05 s⁻¹. Besides, the Tmax in series [2] (setting [5]) was 1.11 ± 0.05 h. Besides, the Tmax in series [2] (setting [6]) is 0.98 ± 0.04 h. For the same compound, in series [2] (liquid), the “V, population estimate (RSE%)” value is recorded as 1600 (34) L; the “ka, population estimate (RSE%)” value is 4.8 (3) 1/h; the T1/2 is listed as 3.19 ± 0.25^2 h; the ka is given as 5.0 ± 0.3^2 1/h. In addition, the V/F in series [2] (liquid) is on record as 1641 ± 168^2. Also, in series [2] (solid), the “V, population estimate (RSE%)” value is given as 2600 (5) L; the “ka, population estimate (RSE%)” value was 3.8 (26) 1/h; the ka worked out at 3.8 ± 0.21 h⁻¹; the V/F stood at 2561 ± 262. Also, in series [3], the “association between F. prausnitzii abundance at baseline and Cmax and AUC” value is recorded as “no significant associations”. Moreover, the change of bioaccessibility result in series [4] (setting [8]) was “slight increase”.

Consider `O=C(/C=C/c1ccc(O)cc1)Nc1ccc(O)cc1C(=O)O` [AVA 2p], for which, in series [1], the change of bioaccessibility entry is recorded as “decreased”. In addition, in series [2] (62 g of oat flakes, solid), the Cmax came to 20 ± 2.12 nM, the half-life was 1.42 ± 0.11 h and the k el is 0.000136 s⁻¹. Moreover, in series [2] (196 mL of oat drink, liquid), the peak level (Cmax) was 4.94 ± 0.5 nM, the half-life is 1.3 h and the k el is 0.000144 s⁻¹. Moreover, in series [2] (setting [5]), the Tmax was found to be 1.91 ± 0.08 h. Also, in series [2] (setting [6]), the Tmax worked out at 1.21 ± 0.05 h. Besides, in series [2] (liquid), the “V, population estimate (RSE%)” value was 113 (16) L; the “ka, population estimate (RSE%)” value is on record as 2.8 (9) 1/h; the “ke, population estimate (RSE%)” value is reported as 0.52 (10) 1/h; the T1/2 is listed as 1.33 ± 0.10 h. Moreover, in series [2] (liquid), the ka was 2.8 ± 0.2^1 1/h and the V/F is recorded as 111 ± 11^1. In series [2] (solid), the “V, population estimate (RSE%)” value is listed as 220 (22) L; the “ka, population estimate (RSE%)” value is reported as 1.6 (10) 1/h; the “ke, population estimate (RSE%)” value is 0.44 (17) 1/h; the ka was 1.50 ± 0.08 h⁻¹. The same compound showed a V/F in series [2] (solid) of 250 ± 26. In addition, in series [3], the “association between F. prausnitzii abundance at baseline and Cmax and AUC” value was “no significant associations”. In series [4] (setting [8]), the change of bioaccessibility entry is recorded as “slight increase”.
